{"source": "patent US9981983B2", "about": "“Thienopyranones as kinase inhibitors” (SignalRx Pharmaceuticals, Inc., priority 2008, dated 2018)", "key": {"786-0 cells": {"system": "786-0 cells", "test": "Apoptosis in 786-0 cells (Annexin V / PI flow cytometry)", "format": "cell-based", "set-up": "unit not given here", "settings": "200 ng/mL", "description": "In order to evaluate the mechanism of action of these compounds, 786-0 cell cultures were treated with Cpd 9 or Cpd 28 at different concentrations overnight and then analyzed for apoptotic induction. The cells were stained using standard methods with Annexin V and/or Propedium iodine (PI) at room temperature for 15 minutes. Apoptotic cells at early (Annexin V positive) or late stage (both Annexin V and PI positive) were detected by Flow Cytometry."}, "[1]": {"system": "pAKT serine 473 level in PC3 cells", "test": "pAKT status in IGF-1 stimulated PC3 cells (Ser473 pAKT ELISA)", "format": "cell-based", "settings": "Homo sapiens, PC-3; IGF-1 stimulated PC3 cells; read-out: PC3 pAKT IC50", "description": "PC3 cells were obtained from the American Type Culture Collection (ATCC, Manassas, Va., Cat.# CRL-1435). Two million cells from the prostate cancer line PC3 were placed into 6 cm culture dishes and allowed to grow in complete RPMI 1640 media (Invitrogen, Carlsbad, Calif., Cat.#22400-105) with 10% fetal bovine serum (Invitrogen, Carlsbad, Calif., Cat.#10438-026). After this time period the cells were serum starved for 5 hours followed by application of the test compound. Test compound was added as a DMSO (dimethyl sulfoxide) solution such that the final DMSO concentration in the cell media was less than or equal to 0.2% by volume After 30 minutes of exposure the growth factor stimulant, human IGF-1 (PeproTech, Inc., Rocky Hill, N.J., Cat.#100-11), was added to a final concentration of 0.1 μg/ml in each well. After 30 minutes of IGF-1 exposure, cells were removed from the media and cell lysates were prepared using RIPA Lysis buffer (Upstate, Lake Placid, N.Y., Cat.#20-188), keeping on ice. The pAKT serine 473 level was measured in duplicate samples of the cell lysates using commercially available assays such as the Pathscan® Sandwich ELISA kit for Ser473 pAKT (Cell Signaling, Danvers, Mass., Cat.#7160). A SpectraMax Plus spectrophotometric plate reader (Molecular Devices, Sunnydale, Calif.) was used to measure the optical density signal for pAKT at 450 nm (OD450 nm). The pAKT OD450 nm readings were normalized by total protein amount in the cell lysates determined by standard methods.\nConcentrations of test compounds required to inhibit IGF stimulated pAKT levels to 50% of maximum levels in PC3 cells (termed DM50 for decreased maximum 50%) were calculated by inputting the dose responses in the software package GraphPad Prism4 (GraphPad Software, Inc., San Diego, Calif.).\nBy these methods a number of compounds of the invention were evaluated and the concentration needed to reduce the detectable pAKT to 50% of the maximal uninhibited signal was calculated. These values (in μMolar units) are listed in Table 8 under the column heading PC3 pAKT IC50 (μMolar)."}, "PC3 cells": {"system": "PC3 cells", "test": "PC3 prostate cancer cell proliferation (WST)", "format": "cell-based", "settings": "Homo sapiens, PC-3; 72 hours; read-out: IC50 PC3 Proliferation", "description": "PC3 cells were obtained from the American Type Culture Collection (ATCC, Manassas, Va., Cat.# CRL-1435) Two thousand cells from the prostate cancer line PC3 were placed in 50 μL of complete RPMI 1640 media (Invitrogen, Carlsbad, Calif., Cat.#22400-105) with 10% fetal bovine serum (Invitrogen, Carlsbad, Calif., Cat.#10438-026) into each well of 96 well cell culture plates in a hexaplicate sampling pattern. A 50 μL aliquot of test compound (prepared from stock test compounds in DMSO diluted into media) was added to the appropriate well such that the final concentrations of test compound were 200, 40, 8, 1.6, 0.32, 0.064, 0.0128, 0.00256, and 0 μM and the final DMSO concentration was less than or equal to 0.2%.\nThe plates were incubated for 72 hours 37° C. in an atmosphere of 5% CO2. At the end of this time a 10 μL aliquot of WST solution (Roche Applied Science, Mannheim, Germany) was added into each of the wells. Cells were exposed to the WST solution for 4 hours. A SpectraMax Plus spectrophotometric plate reader (Molecular Devices, Sunnydale, Calif.) was then used to measure the optical density at 450 nm (OD450 nm). Sigmoidal curves were drawn for the dose responses and IC50 values were calculated using the software package GraphPad Prism4 (GraphPad Software, Inc., San Diego, Calif.)."}, "breast cancer stem cells": {"system": "breast cancer stem cells", "settings": "women with breast tumors with high HER2; decreased from 11%; cited from earlier work"}, "MCF7 breast cancer cells": {"system": "MCF7 breast cancer cells", "test": "Mammosphere cancer stem cell inhibition assay", "format": "cell-based", "description": "A mammosphere cancer stem cell inhibition assay was set up using literature methods (T. M. Phillips et al. J. Natl. Cancer I. 2006, 98, 1777-1785, “Mammalian target of rapamycin contributes to the acquired apoptotic resistance of human mesothelioma multicellular spheroids”) using a subset of MCF7 breast cancer cells that posses the ability to evade anchorage independent apoptosis. Commercially available MCF7 breast cancer cells were cultured in MEM supplemented with 0.01 mg/mL of bovine insulin and 10% FBS at 37° C. in humidified atmosphere (5% CO2). Floating cells in the 2-day cultures were collected, washed, and resuspended in DMEM-F12 (50:50) supplemented with 0.4% BSA, 5 μg/mL bovine insulin, 20 ng/mL bFGF, and 10 ng/mL EGF. Cells were then passed through a […] sieve to remove any cell clusters and adjusted to a density of 10,000 cells/mL. Approximately 500 cells were plated in quadruplicate in a sterile poly-HEMA-treated 96-well plate. Cells were then treated with either control or test solutions consisting of the kinase inhibitor Lapatinib (1 μM), Cpd 28 (1 or 10 μM), Cpd 55 (1 or 10 μM), The numbers of mammospheres (clusters of cells numbering more than 4 or 5 per cluster) were then counted after 5-7 days."}, "[2]": {"system": "AKT Ser473 phosphorylation in PC3 (prostate cancer) Cell Line", "test": "pAKT Ser473 ELISA in PC3 cells stimulated by Bv8, VEGF, IGF", "format": "cell-based", "settings": "Homo sapiens, PC-3, PC3, read-out: Concentration Required to Inhibit pAKT to Half-maximal Levels", "description": "(§1) This was followed by the addition of IGF, VEGF and Bv8 to 0.1 μg/mL, 0.1 μg/mL and 2.5 μg/mL respectively for another 30 minutes before harvesting the cells and making cell lysates with RIPA buffer keeping on ice, pAKT levels were measured in duplicate samples with Cell Signaling's Ser473 pAKT ELISA kit. Optical density plate readings of pAKT levels were made at 450 nm (OD450 nm) and were normalized by total protein amount of the cell lysates. The dose of compound at which pAKT levels are reduced to 50% of the non-treatment level was calculated using GraphPad Prism4 software and is listed in Tables 4 and 5 below."}, "[3]": {"system": "AKT Ser473 phosphorylation in renal cell carcinoma (786-O) Cell Line", "test": "pAKT Ser473 ELISA in 786-O cells stimulated by Bv8, VEGF, IGF", "format": "cell-based", "settings": "Homo sapiens, 786-0, 786-O, read-out: Concentration Required to Inhibit pAKT to Half-maximal Levels", "description": "as §1"}, "[4]": {"settings": "1 μM, separate experiment, control 32±6"}}, "note": "Like-named read-outs stand apart in the source and are kept apart here. Starred links: 1 amine or outer side, 2 acyl side, 3 side chain; linkers in the order of their positions; H or OH if unused. Positions of bridges follow the written chain, without caps; N, C: chain ends. Non-standard residues stand in square brackets, D forms with d. Residues, ends and D or L forms follow the SMILES beside them. Chains are numbered I, II in the order given. Actinocin(9to1) = Cc1c2oc3c(C)ccc(C(=O)[*:1])c3nc-2c(C(=O)[*:2])c(N)c1=O; NMeV = CN[C@H](C(=O)O)C(C)C; Sar = CNCC(=O)O", "data": [{"smiles": "Cc1c2oc3c(C)ccc(C(=O)N[C@@H]4C(=O)N[C@H](C(C)C)C(=O)N5CCC[C@H]5C(=O)N(C)CC(=O)N(C)[C@@H](C(C)C)C(=O)O[C@@H]4C)c3nc-2c(C(=O)N[C@@H]2C(=O)N[C@H](C(C)C)C(=O)N3CCC[C@H]3C(=O)N(C)CC(=O)N(C)[C@@H](C(C)C)C(=O)O[C@@H]2C)c(N)c1=O", "note": "[Actinomycin D, reference compound] (I: T[dV]P[Sar][NMeV] / II: T[dV]P[Sar][NMeV]; ester I:1-I:C, II:1-II:C; linker I:N-II:N via Actinocin(9to1))", "values": [{"measurement": "Early stage apoptotic cells", "setting": "786-0 cells", "value": 16.93}, {"measurement": "Late stage apoptotic cells", "setting": "786-0 cells", "value": 12.63}, {"measurement": "Total Apoptotic Cells", "setting": "786-0 cells", "value": 29.56}]}, {"smiles": "Nc1cccc(-c2csc3c(=O)cc(N4CCOCC4)oc23)c1", "note": "[Compound 11]", "values": [{"measurement": "IC50", "setting": "[1]", "value": 6320, "unit": "nM"}, {"measurement": "IC50", "setting": "PC3 cells", "value": 6290, "unit": "nM"}]}, {"smiles": "CS(=O)(=O)CCNCc1ccc(-c2ccc3ncnc(Nc4ccc(OCc5cccc(F)c5)c(Cl)c4)c3c2)o1", "note": "[Lapatinib, reference compound]", "values": [{"measurement": "breast cancer stem cells in biopsies", "setting": "breast cancer stem cells", "value": "5 % of cells"}, {"measurement": "inhibition of mammosphere production versus control", "setting": "MCF7 breast cancer cells; 1 μM, first experiment", "value": 33, "unit": "%"}, {"measurement": "number of mammospheres", "setting": "MCF7 breast cancer cells; 1 μM, first experiment, control 38±4", "value": "26±2", "unit": "mammospheres"}, {"measurement": "inhibition of mammosphere production versus control", "setting": "MCF7 breast cancer cells; 1 μM, separate experiment", "value": 55, "unit": "%"}, {"measurement": "number of mammospheres", "setting": "MCF7 breast cancer cells; [4]", "value": "17±4", "unit": "mammospheres"}]}, {"smiles": "CCOC(=O)c1ccc(-c2csc3c(=O)cc(N4CCOCC4)oc23)cc1", "note": "[Compound 25]", "values": [{"measurement": "IC50", "setting": "[2]; stimulant Bv8", "value": 941, "unit": "nM"}, {"measurement": "IC50", "setting": "[2]; stimulant IGF", "value": 2120, "unit": "nM"}, {"measurement": "IC50", "setting": "[2]; stimulant PBS", "value": 564, "unit": "nM"}, {"measurement": "IC50", "setting": "[2]; stimulant VEGF", "value": 332, "unit": "nM"}, {"measurement": "IC50", "setting": "PC3 cells", "value": "1230 to 3140", "unit": "nM"}, {"measurement": "IC50", "setting": "[3]; stimulant Bv8", "value": 699, "unit": "nM"}, {"measurement": "IC50", "setting": "[3]; stimulant IGF", "value": 4390, "unit": "nM"}, {"measurement": "IC50", "setting": "[3]; stimulant PBS", "value": 918, "unit": "nM"}, {"measurement": "IC50", "setting": "[3]; stimulant VEGF", "value": 498, "unit": "nM"}, {"measurement": "inhibition of mammosphere production versus control", "setting": "MCF7 breast cancer cells; 1 μM, separate experiment", "value": "approximately 69%"}, {"measurement": "number of mammospheres", "setting": "MCF7 breast cancer cells; [4]", "value": "12±3", "unit": "mammospheres"}, {"measurement": "inhibition of mammosphere production versus control", "setting": "MCF7 breast cancer cells; 10 μM, separate experiment", "value": "approximately 82%"}, {"measurement": "number of mammospheres", "setting": "MCF7 breast cancer cells; 10 μM, separate experiment, control 32±6", "value": "7±2", "unit": "mammospheres"}]}]}
